For experiment [1], the target named is T1, Tyrosine-protein phosphatase non-receptor type 22 (Homo sapiens, UniProt Q9Y2R2).
T1 sequence (Q9Y2R2 whole entry): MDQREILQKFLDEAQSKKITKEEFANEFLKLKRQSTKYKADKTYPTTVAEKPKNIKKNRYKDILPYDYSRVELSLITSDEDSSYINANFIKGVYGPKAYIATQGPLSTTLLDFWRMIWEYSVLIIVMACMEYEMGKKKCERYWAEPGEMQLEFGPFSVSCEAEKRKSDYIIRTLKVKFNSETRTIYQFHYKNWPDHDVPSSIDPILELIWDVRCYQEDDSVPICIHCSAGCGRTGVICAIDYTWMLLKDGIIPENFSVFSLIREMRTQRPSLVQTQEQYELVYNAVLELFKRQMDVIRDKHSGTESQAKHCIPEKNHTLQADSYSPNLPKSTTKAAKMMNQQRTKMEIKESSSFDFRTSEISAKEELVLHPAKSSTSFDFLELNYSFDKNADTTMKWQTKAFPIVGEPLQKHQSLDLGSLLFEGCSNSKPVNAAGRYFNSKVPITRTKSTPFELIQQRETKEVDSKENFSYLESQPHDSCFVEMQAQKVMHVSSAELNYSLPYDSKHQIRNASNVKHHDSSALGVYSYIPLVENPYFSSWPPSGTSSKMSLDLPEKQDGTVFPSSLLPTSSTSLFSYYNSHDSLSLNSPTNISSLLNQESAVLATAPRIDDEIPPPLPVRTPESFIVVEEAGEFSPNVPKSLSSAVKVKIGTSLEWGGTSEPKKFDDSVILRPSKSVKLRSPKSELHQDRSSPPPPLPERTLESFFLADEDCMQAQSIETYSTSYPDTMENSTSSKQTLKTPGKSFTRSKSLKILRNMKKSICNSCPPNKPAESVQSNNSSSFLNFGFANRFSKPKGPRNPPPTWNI
In words: LYP1 Fluorescent Assay using OMFP substrate for In Vitro dose response studies. [Related pubchem assays (depositor defined):AID1779, AID1784, AID435024].

The target of experiment [2] is T2, Tyrosine-protein phosphatase non-receptor type 7 (Homo sapiens, UniProt P35236).
T2 sequence (P35236 whole entry): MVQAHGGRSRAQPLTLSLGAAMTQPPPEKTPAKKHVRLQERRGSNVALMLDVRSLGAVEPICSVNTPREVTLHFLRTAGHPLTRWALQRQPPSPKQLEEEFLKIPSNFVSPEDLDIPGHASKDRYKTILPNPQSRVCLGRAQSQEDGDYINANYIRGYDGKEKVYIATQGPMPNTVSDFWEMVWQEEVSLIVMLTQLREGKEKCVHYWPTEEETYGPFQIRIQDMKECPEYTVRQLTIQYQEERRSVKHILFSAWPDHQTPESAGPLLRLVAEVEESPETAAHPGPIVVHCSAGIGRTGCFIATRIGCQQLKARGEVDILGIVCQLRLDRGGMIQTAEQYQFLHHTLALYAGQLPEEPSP
In words: HTS HePTP Fluorescent Assay using OMFP substrate for In Vitro dose response studies. [Related pubchem assays (depositor defined):AID1059, AID1077, AID1784, AID2068, AID2085, AID435032, AID521]. It is filed as functional.

Experiment [3] deals with T1, Tyrosine-protein phosphatase non-receptor type 22. In words: inhibitors of LYP phosphatase, biochemical, fluorescence intensity, uHTS (AID 1779).
The target is the same in experiment [4]. It is filed as functional.
In experiment [5] the target is T3, Dual specificity protein phosphatase 6 (Rattus norvegicus, UniProt Q64346).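 Note: confirmatory in vitro dose-response testing of MKP-3 inhibition; recombinant His-tagged MKP-3 made in E. coli BL21 with OMFP substrate.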
T3 sequence (Q64346 whole entry): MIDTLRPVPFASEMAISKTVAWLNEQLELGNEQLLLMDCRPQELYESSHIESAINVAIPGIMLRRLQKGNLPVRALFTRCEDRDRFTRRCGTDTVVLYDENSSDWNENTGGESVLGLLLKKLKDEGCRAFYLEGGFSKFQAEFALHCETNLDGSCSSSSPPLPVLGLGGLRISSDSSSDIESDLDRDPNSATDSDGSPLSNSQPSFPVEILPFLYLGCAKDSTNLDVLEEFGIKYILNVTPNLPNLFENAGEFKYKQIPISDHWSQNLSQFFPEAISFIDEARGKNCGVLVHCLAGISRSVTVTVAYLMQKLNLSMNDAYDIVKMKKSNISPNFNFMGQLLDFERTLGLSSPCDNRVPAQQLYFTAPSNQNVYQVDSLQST
In kind it is functional.

Experiment [6] addresses T4, Carboxy-terminal domain RNA polymerase II polypeptide A small phosphatase 1 (Homo sapiens, UniProt Q9GZU7).
T4 sequence (Q9GZU7 whole entry): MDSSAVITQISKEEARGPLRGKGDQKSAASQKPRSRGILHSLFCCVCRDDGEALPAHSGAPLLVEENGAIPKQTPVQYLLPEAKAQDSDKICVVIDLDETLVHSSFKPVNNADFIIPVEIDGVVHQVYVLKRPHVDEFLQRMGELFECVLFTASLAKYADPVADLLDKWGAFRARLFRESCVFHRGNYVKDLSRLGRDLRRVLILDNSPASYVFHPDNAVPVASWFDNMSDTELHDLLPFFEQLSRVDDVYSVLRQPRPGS
In words: inhibitors of CTDSP1, concentration-response testing, biochemical assay, absorbance-based, actives from ultra-high-throughput screening (AID 540297). It is filed as functional.

The target in experiment [7] is Dual specificity protein phosphatase 3 (Homo sapiens, UniProt P51452). Briefly: VHR phosphatase inhibition, dose response, selectivity assay for STEP inhibitor project, biochemical (AID 602374). To be noted: read-out: IC50_Mean. It is filed as functional.
Dual specificity protein phosphatase 3, sequence (P51452 whole entry): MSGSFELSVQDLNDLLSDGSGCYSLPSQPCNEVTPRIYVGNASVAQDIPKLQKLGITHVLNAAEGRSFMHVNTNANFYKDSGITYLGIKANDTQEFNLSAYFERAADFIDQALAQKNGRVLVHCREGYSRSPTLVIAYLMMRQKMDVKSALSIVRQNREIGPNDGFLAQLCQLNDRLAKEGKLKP
Experiment [8] has as its target Small ubiquitin-related modifier 1 (Homo sapiens, UniProt P63165). Briefly: inhibitors of SUMO1 peptide binding, dose response, biochemical, fluorescence polarization, uHTS hits (AID 624382). To be noted: read-out: IC50_Mean. In kind it is functional. (In general: In fluorescence polarisation assays a small probe gives low polarisation when free and higher when bound to something large.)

Experiment [9] deals with T1, Tyrosine-protein phosphatase non-receptor type 22. Briefly: PTPN22 phosphatase inhibition, dose response, selectivity assay for STEP inhibitor project, biochemical (AID 624241). In kind it is functional.
The target in the next experiment is SUMO-activating enzyme (Homo sapiens, UniProt Q9UBT2). In words: SUMOylation inhibitor hit validation, confirmation, SUMOylation inhibitor project, biochemical, AlphaScreen (AID 2018). In kind it is functional.
SUMO-activating enzyme, sequence (Q9UBE0 whole entry): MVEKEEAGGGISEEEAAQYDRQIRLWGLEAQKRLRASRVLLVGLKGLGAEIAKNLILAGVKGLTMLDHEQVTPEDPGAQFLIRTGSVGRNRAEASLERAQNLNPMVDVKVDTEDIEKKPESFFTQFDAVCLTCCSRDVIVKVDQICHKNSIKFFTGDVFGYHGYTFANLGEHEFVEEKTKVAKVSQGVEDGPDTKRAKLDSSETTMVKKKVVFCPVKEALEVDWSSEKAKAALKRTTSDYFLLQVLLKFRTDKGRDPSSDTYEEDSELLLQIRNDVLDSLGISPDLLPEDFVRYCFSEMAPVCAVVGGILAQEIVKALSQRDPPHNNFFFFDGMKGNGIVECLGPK
SUMO-activating enzyme, sequence (Q9UBT2 whole entry): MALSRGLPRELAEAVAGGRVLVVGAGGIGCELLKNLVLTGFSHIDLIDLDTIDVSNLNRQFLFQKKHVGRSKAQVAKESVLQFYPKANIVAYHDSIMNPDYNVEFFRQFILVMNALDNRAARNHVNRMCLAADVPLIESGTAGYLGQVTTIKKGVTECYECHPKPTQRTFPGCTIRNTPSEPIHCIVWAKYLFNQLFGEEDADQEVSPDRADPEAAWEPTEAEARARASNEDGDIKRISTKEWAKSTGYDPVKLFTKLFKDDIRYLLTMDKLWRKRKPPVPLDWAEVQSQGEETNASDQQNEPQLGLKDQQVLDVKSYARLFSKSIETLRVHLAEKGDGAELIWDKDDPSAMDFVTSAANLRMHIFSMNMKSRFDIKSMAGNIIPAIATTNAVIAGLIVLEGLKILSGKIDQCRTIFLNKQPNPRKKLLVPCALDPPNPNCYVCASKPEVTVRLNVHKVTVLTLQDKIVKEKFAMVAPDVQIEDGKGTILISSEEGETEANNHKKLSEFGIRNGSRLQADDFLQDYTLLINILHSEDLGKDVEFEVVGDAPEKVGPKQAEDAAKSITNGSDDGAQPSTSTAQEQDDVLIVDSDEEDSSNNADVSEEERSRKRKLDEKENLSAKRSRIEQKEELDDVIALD
For experiment [10], the target named is Voltage-dependent T-type calcium channel subunit alpha-1H (Homo sapiens, UniProt O95180). It is filed as functional.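 Note: channel activity triggered by adding a high calcium stimulation buffer.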
Voltage-dependent T-type calcium channel subunit alpha-1H, sequence (O95180 whole entry): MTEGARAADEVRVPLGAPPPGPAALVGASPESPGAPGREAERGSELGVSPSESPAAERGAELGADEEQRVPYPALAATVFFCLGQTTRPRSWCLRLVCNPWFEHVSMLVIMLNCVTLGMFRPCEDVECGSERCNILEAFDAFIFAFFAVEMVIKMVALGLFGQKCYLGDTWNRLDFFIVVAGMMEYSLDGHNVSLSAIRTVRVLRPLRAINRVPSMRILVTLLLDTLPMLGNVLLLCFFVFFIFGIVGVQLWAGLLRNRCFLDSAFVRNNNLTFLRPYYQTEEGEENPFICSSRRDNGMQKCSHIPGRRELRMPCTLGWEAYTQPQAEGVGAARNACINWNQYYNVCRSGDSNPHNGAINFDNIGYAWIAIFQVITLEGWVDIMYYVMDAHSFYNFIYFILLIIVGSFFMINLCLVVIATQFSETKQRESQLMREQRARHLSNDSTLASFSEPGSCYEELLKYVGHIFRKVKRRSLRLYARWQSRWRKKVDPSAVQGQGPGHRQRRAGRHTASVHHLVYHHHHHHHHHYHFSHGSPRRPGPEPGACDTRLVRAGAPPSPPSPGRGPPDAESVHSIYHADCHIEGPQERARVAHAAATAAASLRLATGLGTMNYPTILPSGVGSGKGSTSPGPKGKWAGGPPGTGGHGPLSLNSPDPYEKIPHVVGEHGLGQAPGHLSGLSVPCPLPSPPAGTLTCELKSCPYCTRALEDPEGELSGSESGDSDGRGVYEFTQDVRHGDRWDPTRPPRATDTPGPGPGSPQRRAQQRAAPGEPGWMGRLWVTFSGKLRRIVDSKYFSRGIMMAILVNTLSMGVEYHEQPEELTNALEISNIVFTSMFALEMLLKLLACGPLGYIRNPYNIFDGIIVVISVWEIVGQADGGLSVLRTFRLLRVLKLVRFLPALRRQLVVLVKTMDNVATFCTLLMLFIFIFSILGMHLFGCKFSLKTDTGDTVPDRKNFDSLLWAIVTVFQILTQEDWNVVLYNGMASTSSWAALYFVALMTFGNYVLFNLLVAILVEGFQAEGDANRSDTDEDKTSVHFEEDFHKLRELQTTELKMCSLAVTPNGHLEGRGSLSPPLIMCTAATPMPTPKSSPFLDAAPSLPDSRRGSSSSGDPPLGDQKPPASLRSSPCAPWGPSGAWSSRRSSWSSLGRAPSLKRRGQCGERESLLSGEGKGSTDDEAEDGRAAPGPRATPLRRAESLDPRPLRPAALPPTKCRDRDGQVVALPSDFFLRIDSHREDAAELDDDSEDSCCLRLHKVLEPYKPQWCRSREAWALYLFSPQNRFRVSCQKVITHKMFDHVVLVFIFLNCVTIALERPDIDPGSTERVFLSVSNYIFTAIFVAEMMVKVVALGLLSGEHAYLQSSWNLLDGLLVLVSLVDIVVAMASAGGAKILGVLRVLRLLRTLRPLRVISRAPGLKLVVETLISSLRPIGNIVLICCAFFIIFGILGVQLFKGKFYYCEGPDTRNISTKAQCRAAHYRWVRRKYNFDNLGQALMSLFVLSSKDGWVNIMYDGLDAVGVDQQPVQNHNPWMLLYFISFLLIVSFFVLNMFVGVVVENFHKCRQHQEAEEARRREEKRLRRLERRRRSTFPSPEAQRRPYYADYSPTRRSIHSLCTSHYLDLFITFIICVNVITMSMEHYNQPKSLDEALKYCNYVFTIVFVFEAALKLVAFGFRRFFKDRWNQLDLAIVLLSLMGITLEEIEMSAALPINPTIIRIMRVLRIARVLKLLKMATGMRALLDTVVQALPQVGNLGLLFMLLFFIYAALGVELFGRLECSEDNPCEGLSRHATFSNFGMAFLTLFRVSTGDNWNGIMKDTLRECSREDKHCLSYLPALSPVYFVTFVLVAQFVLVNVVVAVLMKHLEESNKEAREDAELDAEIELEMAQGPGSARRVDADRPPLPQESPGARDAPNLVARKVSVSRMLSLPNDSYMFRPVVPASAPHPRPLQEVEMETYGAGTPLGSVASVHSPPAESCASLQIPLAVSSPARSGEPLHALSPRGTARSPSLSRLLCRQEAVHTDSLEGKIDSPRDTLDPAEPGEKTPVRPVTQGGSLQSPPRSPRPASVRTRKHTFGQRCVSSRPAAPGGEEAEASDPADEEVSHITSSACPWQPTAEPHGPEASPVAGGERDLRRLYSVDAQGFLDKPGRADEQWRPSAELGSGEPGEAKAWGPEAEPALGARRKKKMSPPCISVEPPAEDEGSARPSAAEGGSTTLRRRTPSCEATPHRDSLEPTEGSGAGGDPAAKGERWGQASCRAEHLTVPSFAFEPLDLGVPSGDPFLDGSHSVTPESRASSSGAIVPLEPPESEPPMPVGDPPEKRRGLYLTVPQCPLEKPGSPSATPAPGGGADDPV
For experiment [11], the target named is T5, Tyrosyl-DNA phosphodiesterase 2 (Homo sapiens, UniProt O95551).
T5 sequence (O95551 whole entry): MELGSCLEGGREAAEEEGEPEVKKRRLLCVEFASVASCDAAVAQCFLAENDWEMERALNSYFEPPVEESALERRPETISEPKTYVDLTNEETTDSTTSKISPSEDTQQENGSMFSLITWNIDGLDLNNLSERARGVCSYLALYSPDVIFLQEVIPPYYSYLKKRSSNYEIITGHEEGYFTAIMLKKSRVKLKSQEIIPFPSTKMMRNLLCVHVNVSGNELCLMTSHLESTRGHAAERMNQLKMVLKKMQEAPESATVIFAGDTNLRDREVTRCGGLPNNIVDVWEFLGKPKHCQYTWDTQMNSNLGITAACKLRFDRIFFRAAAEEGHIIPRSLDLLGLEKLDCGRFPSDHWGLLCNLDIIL
Briefly: human TDP2 enzyme inhibitors, dose response, biochemical, epi absorbance, IC50 (AID 743297).

Activity calls are given as the source filed them. A value given as a limit tells only on which side of the number the result lay.

Small ubiquitin-related modifier 1, sequence (P63165 whole entry): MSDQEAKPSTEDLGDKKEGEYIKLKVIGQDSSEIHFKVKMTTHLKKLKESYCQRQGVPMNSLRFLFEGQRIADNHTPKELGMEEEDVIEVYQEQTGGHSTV

For `CCOC(=O)c1sc2nc3c(SCC(=O)O)cc(C(=O)c4ccccc4O)cn3c(=O)c2c1C`, the IC50 is > 99 µM (inactive) in experiment [1]; > 99 µM (inactive) in [2]; > 99 µM (inactive) in [3]; < 1.24 µM (active) in experiment [4]; 57.3 µM (active) in experiment [5]; 14.8 µM (active) in experiment [6]. Further, the IC50 is 549 nM (active) in experiment [7], > 66.6 µM (inactive) in experiment [8] and 1.16 µM (active) in [9].
Turning to `C=CCn1c(NC(=O)c2ccccc2Cl)c(C#N)c2nc3ccccc3nc21`, the IC50 on SUMO-activating enzyme is 860 nM (active); in experiment [11], > 128 µM (inactive). Further, in experiment [10], the EC50 is 4.23 µM (active).

As a reminder, the EC50 is the concentration giving half of the maximal effect.

Values taken from ChEMBL document CHEMBL1201862, “PubChem BioAssay data set” (2004).
